For 16 compounds, IC50 results are on record in patent US6498252B1, “Pyrimidine-2,4,6-trione derivatives, processes for their production and pharmaceutical agents containing these compounds” (priority 1999, dated 2002).

pIC50: −log10 of the molar value.

The target in one assay is T1, MMP-8, catalytic domain (Homo sapiens, UniProt P22894).
T1 construct: Enzyme: 8 nM catalytic domain (Met80-Gly242) of human neutrophil collagenase (MMP-8); made in house
T1 sequence (P22894 100-262 limits assumed): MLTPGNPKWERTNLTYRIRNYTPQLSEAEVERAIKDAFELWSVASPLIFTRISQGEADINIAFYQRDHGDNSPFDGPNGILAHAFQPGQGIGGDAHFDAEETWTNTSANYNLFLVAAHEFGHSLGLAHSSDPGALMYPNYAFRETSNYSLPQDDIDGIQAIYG
In words: Inhibition of MMP-8 (HNC) catalytic domain, fluorogenic substrate cleavage. The format is biochemical.
Conditions: not given
The method, then:
In order to determine the inhibition of MMPs, for example HNC (MMP-8), the catalytic domain (isolation and purification see for example Schnierer, S., Kleine, T., Gote, T., Hillemann, A., Knäuper, V., Tschesche, H.,Biochem. Biophys. Res. Commun. (1993) 191, 319-326) were incubated with inhibitors having various concentrations. Subsequently, the initial reaction rate in the conversion of a standard substrate was measured in a manner analogous to Grams F. et al., FEBS 335 (1993) 76-80).
The results awee evaluated by plotting the reciprocal reaction rate against the concentration of the inhibitor. The inhibition constant (Ki) is obtained as the negative section of the abscissis by the graphical method according to Dixon, M., Biochem. J. (1953) 55, 170-202.
The synthetic collagenase substrate was a heptapeptide which is coupled, at the C terminus, with DNP (dinitrophenol). Said DNP residue quenched by steric hindrance the fluorescence of the adjacent tryptophane of the heptapeptide. After cleavage of a tripeptide which includes the DNP group, the tryptophane fluorescence increased. The proteolytic cleavage of the substrate therefore was measured by the fluorescence value.
The assay was performed at 25° C. in a freshly prepared 50 mM Tris buffer (pH 8.0) treated with dithiozone to remove traces of heavy metals. 4 mM CaCl2 was added and the buffer saturated with argon. Stock solutions of adamalysin II were prepared by centrifugation of the protein from an ammonium sulfate suspension and subsequent dissolution in the assay buffer. Stock solutions of collagenase were diluted with the assay buffer. Enzyme concentrations were determined by uv measurements (ε280=2.8 10^4 M^−1 cm^−1, ε288: 2.2 10^4 M^−. cm^−1) and the stock solutions were stored in the cold. This solution was diluted 1:100 to obtain the final 16 nM assay concentration. The fluorogenic substrate DNP-Pro-Leu-Gly-Leu-Trp-Ala-D-Arg-NH2 with a Km of 52 μM was used at a concentration of 21.4 μM; for the Ki determination a 12.8 μM concentration has also been used. Substrate fluorescence was measured at an excitation and emission wavelength of λ=320 and 420 nm, respectively, on a spectrofluorimeter (Perkin Elmer, Model 650-40) equipped with a thermostated cell holder. Substrate hydrolysis was monitored for 10 minutes. immediately after adding the enzyme. All reactions were performed at least in triplicate. The Ki values-of the inhibitors were calculated from the intersection point of the straight lines obtained by the plots of vo/vi vs. [concentration of inhibitor], whereas IC50 values were calculated from plots of vi/vo [concentration of inhibitor] by non-linear regression with simple robust weighting.
50 mM Tris/HCI pH 7.6 (Tris=Tris-(hydroxymethyl)-aminomethan)
100 mM NaCl/10 mM CaCl2/5% MeOH (ff necessary)
Enzyme: 8 nM catalytic domain (Met80-Gly242) of human neutrophil collagenase (MMP-8)
10 microM DNP-Pro-Leu-Gly-Leu-Trp-Ala-D-Arg-NH2
A solution of the enzyme and inhibitor in assay buffer (25° C.) was prepared. The reaction was started by giving the substrate into the solution. The cleavage of the fluorogenic substrate was followed by fluorescence spectroscopy with an excitation and emission wavelength of 280 and 350 nm, respectively. The IC50 value was calculated as the inhibitor concentration, which is necessary to decrease the velocity of the reaction to the half in comparison to the reaction without inhibitor.
118 cited in the patent application EP0869947
As a reminder, the pIC50 is the negative decadic logarithm of the IC50, by convention in mol/L. Take `NS(=O)(=O)c1ccc(N2CCN(C3(c4ccc(Oc5ccc(Cl)cc5)cc4)C(=O)NC(=O)NC3=O)CC2)cc1` [Example 5 - no. 9, 4-(4-5-[4-(4-Chloro-phenoxy)-phenyl]-2,4,6-trioxo-hexahydro-pyrimidin-5-yl-piperazin-1-yl)-benzenesulfonamide]: the pIC50 is 7.92.

Take `O=C1NC(=O)C(c2ccc(Oc3ccc(Cl)cc3)cc2)(N2CCN(c3ccc(S(=O)(=O)N(CCO)CCO)cc3)CC2)C(=O)N1` [Example 5 - no. 10, 4-(4-5[-4-(4-Chloro-phenoxy)-phenyl]-2,4,6-trioxo-hexahydro-pyrimidin-5-yl-piperazin-1-yl)-N,N-bis-(2-hydroxy-ethyl)-benzenesulfonamide]: the pIC50 was 8.05.

In the case of `O=C1NC(=O)C(c2ccc(Oc3ccccc3)cc2)(N2CCN(c3ccc(S(=O)(=O)NCC(O)CO)cc3)CC2)C(=O)N1` (stereo not shown) [Example 5 - no. 11, N-(2,3-Dihydroxy-propyl)-4-4-[2,4,6-trioxo-5-(4-phenoxy-phenyl)-hexahydro-pyrimidin-5-yl]-piperazin-1-yl-benzenesulfonamide], the pIC50 was 8.35.

As to `O=C1NC(=O)C(c2ccc(Oc3ccccc3)cc2)(N2CCN(c3ccc(S(=O)(=O)NC(CO)CO)cc3)CC2)C(=O)N1` [Example 5 - no. 12, N-(2-Hydroxy-1-hydroxymethyl-ethyl)-4-4-[2,4,6-trioxo-5-(4-phenoxy-phenyl)-hexahydro-pyrimidin-5-yl]-piperazin-1-yl-benzenesulfonamide], the pIC50 was 8.26.

Turning to `O=C1NC(=O)C(c2ccc(Oc3ccccc3)cc2)(N2CCN(c3ccc(S(=O)(=O)NCCOCCOCCO)cc3)CC2)C(=O)N1` [Example 5 - no. 13, N-2-[2-(2-Hydroxy-ethoxy)-ethoxy]-ethyl-4-4-[2,4,6-trioxo-5-(4-phenoxy-phenyl)-hexahydro-pyrimidin-5-yl]-piperazin-1-yl-benzenesulfonamide], the pIC50 was 8.22.

`O=C1NC(=O)C(c2ccc(Oc3ccc(Cl)cc3)cc2)(N2CCN(c3ccc(S(=O)(=O)NC(CO)(CO)CO)cc3)CC2)C(=O)N1` [Example 5 - no. 19, 4-(4-5-[4-(4-Chloro-phenoxy)-phenyl]-2,4,6-trioxo-hexahydro-pyrimidin-5-yl-piperazin-1-yl)-N-(2-hydroxy-1,1-bis-hydroxymethyl-ethyl)-benzenesulfonamide] gave a pIC50 of 8.05.

On to `O=C1NC(=O)C(c2ccc(Oc3ccccc3)cc2)(N2CCN(c3ccc(S(=O)(=O)NCC4COC(=O)O4)cc3)CC2)C(=O)N1` (stereo not shown) [Example 6, N-(2-Oxo-[1,3]dioxolan-4-ylmethyl)-4-4-[2,4,6-trioxo-5-(4-phenoxy-phenyl)-hexahydro-pyrimidin-5-yl]-piperazin-1-yl-benzenesulfonamide], for which the pIC50 is 8.05.

The assay is the same for the next values; noted with them: catalytic domain of human neutrophil collagenase (MMP-8); substrate DNP-Pro-Leu-Gly-Leu-Trp-Ala-D-Arg-NH2; 25° C.; read-out: IC50 Values of MMP-Inhibitor (vs. MMP-8, catalytic domain).
Take `O=C1NC(=O)C(c2ccc(Oc3ccc(Cl)cc3)cc2)(N2CCN(c3ncccn3)CC2)C(=O)N1` [Example 1, 5-(4-(4-Chloro-phenoxy)-phenyl)-5-(4-pyrimidine-2-yl-piperazine)-pyrimidine-2,4,6-trione]: the pIC50 is 8.00.

Regarding `O=C1NC(=O)C(c2ccc(Oc3ccc(Cl)cc3)cc2)(N2CCN(c3cnccn3)CC2)C(=O)N1` [Example 2], the pIC50 was 8.40.

For the compound `O=C1NC(=O)C(c2ccc(Oc3ccc(Cl)c(Cl)c3)cc2)(N2CCN(c3ncccn3)CC2)C(=O)N1` [Example 3 - no. 1, 5-[4-(3,4-Dichloro-phenoxy)-phenyl]-5-(4-pyrimidin-2-yl-piperazin-1-yl)-pyrimidine-2,4,6-trione], the pIC50 is 8.40.

Consider `O=C1NC(=O)C(c2ccc(Oc3ccc(Cl)c(Cl)c3)cc2)(N2CCN(c3cnccn3)CC2)C(=O)N1` [Example 3 - no. 2, 5-[4-(3,4-Dichloro-phenoxy)-phenyl]-5-(2,3,5,6-tetrahydro-[1,2′]bipyrazinyl-4-yl)-pyrimidine-2,4,6-trione], for which the pIC50 is 8.70.

Turning to `O=C1NC(=O)C(c2ccc(Oc3ccc(Br)cc3)cc2)(N2CCN(c3ncccn3)CC2)C(=O)N1` [Example 3 - no. 15, 5-[4-(4-Bromo-phenoxy)-phenyl]-5-(4-pyrimidin-2-yl-piperazin-1-yl)-pyrimidine-2,4,6-trione], the pIC50 is 8.40.

`O=C1NC(=O)C(c2ccc(Oc3ccc(Cl)cc3)cc2)(N2CCN(c3ccc(S(=O)(=O)NCCO)cc3)CC2)C(=O)N1` [Example 4, 4-(4-5-[4-(4-Chloro-phenoxy)-phenyl]-2,4,6-trioxo-hexahydro-pyrimidin-5-yl-piperazin-1-yl)-N-(2-hydroxy-ethyl)-benzenesulfonamide]: the pIC50 was 8.00.

Take `NS(=O)(=O)c1ccc(N2CCN(C3(c4ccc(Oc5ccc(Br)cc5)cc4)C(=O)NC(=O)NC3=O)CC2)cc1` [Example 5 - no. 6, 4-(4-5-[4-(4-Bromo-phenoxy)-phenyl]-2,4,6-trioxo-hexahydro-pyrimidin-5-yl-piperazin-1-yl)-benzenesulfonamide]: the pIC50 was 8.55.

Regarding `CN(C)CCNS(=O)(=O)c1ccc(N2CCN(C3(c4ccc(Oc5ccc(Br)cc5)cc4)C(=O)NC(=O)NC3=O)CC2)cc1` [Example 5 - no. 7, 4-(4-5-[4-(4-Bromo-phenoxy)-phenyl]-2,4,6-trioxo-hexahydro-pyrimidin-5-yl-piperazin-1-yl)-N-(2-dimethylamino-ethyl)-benzenesulfonamide], the pIC50 was 7.89.

On to `O=C1NC(=O)C(c2ccc(Oc3ccccc3)cc2)(N2CCN(c3ccc(S(=O)(=O)NC(CO)(CO)CO)cc3)CC2)C(=O)N1` [Example 5 - no. 18, N-(2-Hydroxy-1,1-bis-hydroxymethyl-ethyl)-4,4-[2,4,6-trioxo-5-(4-phenoxy-phenyl)-hexahydro-pyrimidin-5-yl]-piperazin-1-yl-benzenesulfonamide], for which the pIC50 is 7.89.
